Test results: article PMC8769378, “Underlining the Importance of Peripheral Protic Functional Groups to Enhance the Proton Exchange of Gd-Based MRI Contrast Agents” (Inorganic Chemistry, 2021)

Experiment: Stability and protonation constants of Cu^II complexes by spectrophotometry
Type: physicochemical
Method: The stability constants of CuL2 were determined by spectrophotometry studying the Cu^2+–L2 systems at the absorption band of Cu^2+ complexes at [H^+] = […] in the wavelength range 210–350 nm. The concentrations of Cu^2+ and L2 were 0.72 mM. The H^+ concentration in the samples was adjusted with the addition of calculated amounts of 3 M HCl. (I = [Na^+] + [H^+] = 0.15, [H^+] ≤ 0.15 M). The samples were kept at 25 °C for 1 week. The absorbance values of the samples were determined at 11 wavelengths (260, 269, 278, 287, 296, 305, 314, 323, 332, 341, and 350 nm). For the calculations of the stability and protonation constants of the […], the molar absorptivities of CuCl2, CuL2, Cu(HL2), Cu(H2L2), and Cu(H3L2) were determined by recording the spectra of 1.0 × 10^–3, 3.0 × 10^–4, 6.0 × 10^–4, and 9.0 × 10^–4 M solutions of CuCl2 and CuL2 in the pH range 1.7–7.5. The pH was adjusted by stepwise addition of concentrated NaOH or HCl solutions. The spectrophotometric measurements were made with the use of a PerkinElmer Lambda 365 UV–vis spectrophotometer at 25 °C, using 1.0 cm cells. The protonation and stability constants were calculated with the PSEQUAD program.[35]
The stability and protonation constants of CaII-, ZnII-, CuII- and GdIII-complexes of L2, expressed by Eqs. (S2) and (S3), were determined by pH-potentiometry and spectrophotometry at 25 °C in 0.15 M […]
where i=0, 1, 2, 3. The KML and KMHiL values of CaII-, ZnII- and CuII-L2 complexes were calculated from the pH-potentiometric titration data obtained at 1:1 metal to ligand concentration ratios. In the calculations, the best fitting of the mL NaOH – pH data was obtained by assuming the formation of […]
ML, MHL, MH2L and MH3L species. […]
– pH data of the “out-of-cell” samples, which had equilibrium pH values in the range of 2.0 – 4.0.
For the complete characterization of the Gd3+-L2 system, the GdL2 complex (which is formed completely at about pH=3.5) was titrated with 0.2 M NaOH solution in the pH range 3.5 – 12.0.
(also on this page, place not known: MH 2L H3L w as derivative s “out -of-cage” *Ln(H 2DOTA)), groups , Ln III-ion donor s . Ln III system. 11,12 th out -of-cage * KGd(H2L) Gd 3+ - ligand 2. 0 Gd 3+-L2 GdL 2 is pH= 3.5) M pH ]L][M[ ]ML[K ML = ]H][LMH[ ]LMH[K 1i i LMHi + − = ]LH][Ln[ )]LH(Ln[K 2 3 2 )LH(Ln 2 + * =) […]
the deprotonation of the Gd(HL) and GdL species, respectively. […]
By taking into account the protonation constants of the ligand L2, the stability constant of the *Gd(H2L2) intermediate and the stability and protonation constant of the GdL2 complex, the species distribution of the Gd3+ - L2 system was calculated (Figure S1). […]
Then, the stability and protonation constants of CuL2 were determined by spectrophotometry. […]

O=C(O)CN1CCN(CC(=O)O)CCN(C[C@@H](O)C(=O)O)CCN(CC(=O)O)CC1 [L2, (R)2,2′,2″-(10-(2-Carboxy-2-hydroxyethyl)-1,4,7,10-tetraazacyclododecane-1,4,7-triyl) Triacetic Acid]
CuH2L (log K) (0.15 M NaCl, 25 °C): 3.36 (2)
CuH3L (log K) (0.15 M NaCl, 25 °C): 1.36 (8)
CuHL (log K, protonation constant of the complex) (0.15 M NaCl, 25 °C): 3.84 (2)
CuL (log K, stability constant) (spectrophotometry, I = [Na^+]+[H^+] = 0.15 M, [H^+] ≤ 0.15 M, 298 K): 21.87 (6)
